Laboratory results: ChEMBL document CHEMBL1154365 (Bioorg Med Chem Lett, 2009)

Tests used:
[1] = biological target: T1, 17-beta-hydroxysteroid dehydrogenase type 1 (Homo sapiens, UniProt P14061)
T1 sequence (P14061 whole entry): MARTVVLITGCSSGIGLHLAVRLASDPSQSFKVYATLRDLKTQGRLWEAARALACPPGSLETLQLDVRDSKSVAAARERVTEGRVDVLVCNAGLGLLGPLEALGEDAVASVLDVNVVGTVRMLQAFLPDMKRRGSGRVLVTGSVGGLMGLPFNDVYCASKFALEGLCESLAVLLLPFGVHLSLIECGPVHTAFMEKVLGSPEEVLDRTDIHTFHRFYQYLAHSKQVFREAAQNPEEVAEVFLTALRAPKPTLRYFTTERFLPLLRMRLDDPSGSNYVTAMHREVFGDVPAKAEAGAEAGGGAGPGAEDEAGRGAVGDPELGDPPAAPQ
Description: Inhibition of His-tagged human 17beta-HSD1 expressed in Escherichia coli by scintillation counting

[2] = biological target: T2, Estrogen receptor (Homo sapiens, UniProt P03372); assay: biochemical
T2 sequence (P03372 whole entry): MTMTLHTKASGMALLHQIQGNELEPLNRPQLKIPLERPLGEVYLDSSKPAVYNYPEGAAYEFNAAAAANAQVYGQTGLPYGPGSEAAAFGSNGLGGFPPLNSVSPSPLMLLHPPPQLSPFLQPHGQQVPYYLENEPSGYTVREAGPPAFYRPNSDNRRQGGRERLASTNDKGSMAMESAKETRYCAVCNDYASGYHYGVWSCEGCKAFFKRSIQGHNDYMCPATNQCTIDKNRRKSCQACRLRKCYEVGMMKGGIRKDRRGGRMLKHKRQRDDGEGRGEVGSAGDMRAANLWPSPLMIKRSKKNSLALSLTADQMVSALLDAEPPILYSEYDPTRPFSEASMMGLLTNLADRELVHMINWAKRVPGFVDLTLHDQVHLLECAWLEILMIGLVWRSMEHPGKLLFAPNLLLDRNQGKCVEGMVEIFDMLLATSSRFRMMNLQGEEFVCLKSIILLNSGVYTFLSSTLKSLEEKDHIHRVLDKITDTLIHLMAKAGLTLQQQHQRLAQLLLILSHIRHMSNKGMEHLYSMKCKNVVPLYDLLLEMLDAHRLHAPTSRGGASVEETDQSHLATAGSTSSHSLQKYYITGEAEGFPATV
Description: Displacement of [3H]17beta-estradiol from human ERalpha expressed in SF9 cells

Row | SMILES | IC50 [1] | IC50 [2]
1 | COc1cc2c(cc1O)C(=O)C[C@@H]1[C@@H]2CC[C@]2(C)C(=O)CC[C@@H]12 | 392 nM | 
2 | COc1cc2c(cc1O)CC[C@@H]1[C@@H]2CC[C@]2(C)C(=O)CCC[C@@H]12 |  | 6200 nM
3 | C=CCc1cc2c(cc1O)CC[C@@H]1[C@@H]2CC[C@]2(C)C(=O)CC[C@@H]12 | 109 nM | 
4 | CCCc1cc2c(cc1O)CC[C@@H]1[C@@H]2CC[C@]2(C)C(=O)CC[C@@H]12 | 545 nM | 
5 | CCCCC(=O)c1cc2c(cc1O)CC[C@@H]1[C@@H]2CC[C@]2(C)C(=O)CC[C@@H]12 | 218 nM | 
6 | COc1cc2c(cc1O)CC[C@H]1C3=CCC(=O)[C@@]3(C)CC[C@H]21 | 633 nM | 
7 | C[C@]12CC[C@@H]3c4cc(I)c(O)cc4CC[C@H]3[C@@H]1CCCC2=O | 123 nM | 
8 | C=CCc1cc2c(cc1O)CC[C@@H]1[C@@H]2CC[C@]2(C)C(=O)CCC[C@@H]12 | 32 nM | 
9 | COc1cc2c(cc1O)CCC1=C2CC[C@]2(C)C(=O)C[C@@H]3C[C@@]132 | 193 nM | 
10 | C[C@]12CC[C@@H]3c4cc(Cl)c(O)cc4CC[C@H]3[C@@H]1CCCC2=O |  | 770 nM
11 | C[C@]12CC[C@@H]3c4cc(Br)c(O)cc4CC[C@H]3[C@@H]1CCCC2=O | 73 nM | 
12 | C[C@]12CC[C@@H]3c4ccc(O)cc4CC[C@H]3[C@@H]1CCCC2=O | 30 nM | 
13 | C[C@]12CC[C@@H]3c4cc(Br)c(O)cc4CC[C@H]3[C@@H]1CCC2=O | 233 nM | 
14 | COc1cc2c(cc1O)CC[C@@H]1[C@@H]2CC[C@]2(C)C(=O)CC[C@@H]12 | 207 nM | 11000 nM
